According to patent US20250025443A1, “COMPOUNDS AND METHODS FOR TREATING CORONA VIRUSES” (CLEAR CREEK BIO, INC., priority 2021, published 2025):

These compounds were tested against SARS-CoV-2 Papain-Like Protease (PLpro) (Severe acute respiratory syndrome coronavirus 2 (2019-nCoV) (SARS-CoV-2), UniProt P0DTD1) (assay: biochemical). Conditions: PLpro enzymatic fluorescence assay; class symbols; read-out: PLpro IC50.
`C#Cc1cc(C2(NC(=O)c3cc(OC[C@@H]4CCN4)ccc3C)CC2)c2cccnc2c1` [Compound 697, (S)-5-(Azetidin-2-ylmethoxy)-N-(1-(7-ethynylquinolin-5-yl)cyclopropyl)-2-methylbenzamide] showed an IC50 of under 100 nM. `COc1cc(C2(NC(=O)c3cc(OC[C@H]4CC5(CC5)CN4C)ccc3C)CC2)c2cccnc2c1` [Compound 774, (R)—N-(1-(7-Methoxyquinolin-5-yl)cyclopropyl)-2-methyl-5-((5-methyl-5-azaspiro[2.4]heptan-6-yl)methoxy)benzamide] showed an IC50 of under 100 nM. Compound `Cc1ccc(OC[C@@H]2CCN2C)cc1C(=O)NC1(c2cc(-c3ccc4ncnn4c3)cc3ncccc23)CC1` [Compound 700, (S)—N-(1-(7-([1,2,4]Triazolo[1,5-a]pyridin-6-yl)quinolin-5-yl)cyclopropyl)-2-methyl-5-((1-methylazetidin-2-yl)methoxy)benzamide] has an IC50 of under 100 nM. For `Cc1ccc(OC[C@@H]2CCN2)cc1C(=O)NC1(c2cc(-c3cc4ccccc4s3)cc3ncccc23)CC1` [Compound 695, (S)-5-(Azetidin-2-ylmethoxy)-N-(1-(7-(benzo[b]thiophen-2-yl)quinolin-5-yl)cyclopropyl)-2-methylbenzamide], the IC50 was under 100 nM. `COc1ccccc1C1(NC(=O)c2cc(OCCN(C)C)ccc2C)CC1` [Compound 277, 5-(2-(Dimethylamino)ethoxy)-N-(1-(2-methoxyphenyl)cyclopropyl)-2-methylbenzamide] was tested, and the IC50 was over 5000 nM. Work on `Cc1ccc([N+](=O)[O-])cc1CNC(c1cccc2ccccc12)C1COC1` (centres unmarked) [Compound 110] yielded an IC50 of over 5000 nM. In the case of `Cc1cccc(/C=C/c2cc(C3(NC(=O)c4cc(OC[C@@H]5CCN5)ccc4C)CC3)c3cccnc3c2)c1` [Compound 704, (S,E)-5-(Azetidin-2-ylmethoxy)-2-methyl-N-(1-(7-(3-methylstyryl)quinolin-5-yl)cyclopropyl)benzamide], the IC50 is reported as under 100 nM. `Cc1ccc(OC[C@@H]2CCN2)cc1C(=O)NC1(c2cc(-c3cnoc3)cc3ncccc23)CC1` [Compound 714, (S)-5-(Azetidin-2-ylmethoxy)-N-(1-(7-(isoxazol-4-yl)quinolin-5-yl)cyclopropyl)-2-methylbenzamide] gave an IC50 of under 100 nM. `Cc1ccc(OCC2CCN2C)cc1C(=O)NC1(c2nccc3ccccc23)CC1` (centres unmarked) [Compound 454, N-(1-(Isoquinolin-1-yl)cyclopropyl)-2-methyl-5-((1-methylazetidin-2-yl)methoxy)benzamide] gave an IC50 of 100 to 1000 nM. Work on `Cc1ccc(OC[C@@H]2CCN2C)cc1C(=O)NC1(c2cc(-c3cc4ccccc4s3)cc3ncccc23)CC1` [Compound 621, (S)-N-(1-(7-(Benzo[b]thiophen-2-yl)quinolin-5-yl)cyclopropyl)-2-methyl-5-((1-methylazetidin-2-yl)methoxy)benzamide] yielded an IC50 of under 100 nM. `Cc1ccc(OC[C@@H]2CCN2C)cc1C(=O)NC1(c2cc(-c3ccc(CN4CCCC4)s3)cc3ncccc23)CC1` [Compound 669, (S)-2-Methyl-5-((1-methylazetidin-2-yl)methoxy)-N-(1-(7-(5-(pyrrolidin-1-ylmethyl)thiophen-2-yl)quinolin-5-yl)cyclopropyl)benzamide] showed an IC50 of under 100 nM. `CCOc1cc(C2(NC(=O)c3cc(OCC4CCN4C)ccc3C)CC2)c2ccccc2c1` (centres unmarked) [Compound 478, N-(1-(3-Ethoxynaphthalen-1-yl)cyclopropyl)-2-methyl-5-((1-methylazetidin-2-yl)methoxy)benzamide] showed an IC50 of under 100 nM. In the case of `Cc1ccc(OC[C@@H]2CCN2C)cc1C(=O)NC1(c2cc(-c3ccc(CN[C@H]4CC[C@@H](O)C4)s3)cc3ncccc23)CC1` [Compound 751, N-(1-(7-(5-((((1S,3R)-3-Hydroxycyclopentyl)amino)methyl)thiophen-2-yl)quinolin-5-yl)cyclopropyl)-2-methyl-5-(((S)-1-methylazetidin-2-yl)methoxy)benzamide], the IC50 is reported as under 100 nM. In the case of `Cc1ccc(OC[C@@H]2CCN2C)cc1C(=O)NC1(c2cc(-c3ccccc3)cc3ncccc23)CC1` [Compound 594, (S)-2-Methyl-5-((1-methylazetidin-2-yl)methoxy)-N-(1-(7-phenylquinolin-5-yl)cyclopropyl)benzamide], the IC50 is reported as under 100 nM.

Same assay, conditions: SARS-CoV-2 PLpro enzymatic fluorescence assay; read-out: PLpro IC50
Compound `Cc1ccc(OC[C@@H]2CCCN2C)cc1C(=O)NC1(c2cccc3ncccc23)CC1` [Compound 379, (S)-2-Methyl-5-((1-methylpyrrolidin-2-yl)methoxy)-N-(1-(quinolin-5-yl)cyclopropyl)benzamide] has an IC50 of under 100 nM. `Cc1ccc(OC2CCCN(C)C2)cc1C(=O)NC1(c2cccc3ccccc23)CC1` (centres unmarked) [Compound 289, 2-Methyl-5-((1-methylpiperidin-3-yl)oxy)-N-(1-(naphthalen-1-yl)cyclopropyl)benzamide] showed an IC50 of 100 to 1000 nM. With `Cc1ccc(OCC(C)N)cc1C(=O)NC1(c2cccc3ccccc23)CC1` (centres unmarked) [Compound 324, 5-(2-Aminopropoxy)-2-methyl-N-(1-(naphthalen-1-yl)cyclopropyl)benzamide] the IC50 was under 100 nM. `Cc1ccc(OCC2CCN2C)cc1C(=O)NC1(c2cccc3nc(F)ccc23)CC1` (centres unmarked) [Compound 529, N-(1-(2-Fluoroquinolin-5-yl)cyclopropyl)-2-methyl-5-((1-methylazetidin-2-yl)methoxy)benzamide] gave an IC50 of under 100 nM. Work on `Cc1ccc(OC[C@H](C)N)cc1C(=O)NC1(c2cc(Br)cc3ccccc23)CC1` [Compound 541, (S)-5-(2-Aminopropoxy)-N-(1-(3-bromonaphthalen-1-yl)cyclopropyl)-2-methylbenzamide] yielded an IC50 of under 100 nM. `Cc1cc(Br)c(OCCN(C)C)cc1C(=O)NC1(c2cccc3ccccc23)CC1` [Compound 369, 4-Bromo-5-(2-(dimethylamino)ethoxy)-2-methyl-N-(1-(naphthalen-1-yl)cyclopropyl)benzamide] was tested, and the IC50 was under 100 nM. For `Cc1ccc(OCCN(C)C)cc1C(=O)NC1(c2cccc(Oc3ccccc3)c2)CC1` [Compound 270, 5-(2-(Dimethylamino)ethoxy)-2-methyl-N-(1-(3-phenoxyphenyl)cyclopropyl)benzamide], the IC50 was over 5000 nM. In the case of `COc1cc(C2(NC(=O)c3cc(OCC4CCN4C)ccc3C)COC2)c2ccccc2c1` (centres unmarked) [Compound 450, N-(3-(3-Methoxynaphthalen-1-yl)oxetan-3-yl)-2-methyl-5-((1-methylazetidin-2-yl)methoxy)benzamide], the IC50 is reported as under 100 nM. `Cc1cc2c(cc1C(=O)NC1(c3cccc4ccccc34)CC1)NCC2(C)C` [Compound 262, 3,3,5-Trimethyl-N-(1-(naphthalen-1-yl)cyclopropyl)indoline-6-carboxamide] gave an IC50 of 100 to 1000 nM. Compound `Cc1ccc(OCC2CCCCN2C)cc1C(=O)NC1(c2cccc3ccccc23)CC1` (centres unmarked) [Compound 288, 2-Methyl-5-((1-methylpiperidin-2-yl)methoxy)-N-(1-(naphthalen-1-yl)cyclopropyl)benzamide] has an IC50 of 100 to 1000 nM. `Cc1cc2ccc(=O)[nH]c2cc1C(=O)N[C@H](C)c1cccc2ccccc12` [Compound 167, (R)-6-Methyl-N-(1-(naphthalen-1-yl)ethyl)-2-oxo-1,2-dihydroquinoline-7-carboxamide] was tested, and the IC50 was over 5000 nM. `COc1cc(C2(NC(=O)c3cc(OCC4CCN4C)ccc3C)CC2)c2ccccc2c1` (centres unmarked) [Compound 384, N-(1-(3-methoxynaphthalen-1-yl)cyclopropyl)-2-methyl-5-((1-methylazetidin-2-yl)methoxy)benzamide] gave an IC50 of under 100 nM. In the case of `CC(=O)Nc1cc(C2(NC(=O)c3cc(OC[C@@H]4CCN4C)ccc3C)CC2)c2cccnc2c1` [Compound 744, (S)-N-(1-(7-Acetamidoquinolin-5-yl)cyclopropyl)-2-methyl-5-((1-methylazetidin-2-yl)methoxy)benzamide], the IC50 is reported as under 100 nM. Compound `Cc1ccc(OCCNCc2ccccc2)cc1C(=O)NC1(c2cccc3ccccc23)CC1` [Compound 360, 5-(2-(Benzylamino)ethoxy)-2-methyl-N-(1-(naphthalen-1-yl)cyclopropyl)benzamide] has an IC50 of under 100 nM. With `Cc1ccc(Nc2nccs2)cc1C(=O)N[C@H](C)c1cccc2ccccc12` [Compound 107, (R)-2-Methyl-N-(1-(naphthalen-1-yl)ethyl)-5-(thiazol-2-ylamino)benzamide] the IC50 was over 5000 nM. With `CCNCCOc1ccc(C)c(C(=O)NC2(c3cccc4ccccc34)CC2)c1` [Compound 351, 5-(2-(Ethylamino)ethoxy)-2-methyl-N-(1-(naphthalen-1-yl)cyclopropyl)benzamide] the IC50 was under 100 nM. `Cc1cc2cc(-c3ccccc3)[nH]c2cc1C(=O)NC1(c2cccc3ccccc23)CC1` [Compound 226, 5-Methyl-N-(1-(naphthalen-1-yl)cyclopropyl)-2-phenyl-1H-indole-6-carboxamide] gave an IC50 of over 5000 nM. Compound `Cc1ccc(OCCN(C)C)cc1C(=O)NC1(c2ccccc2-c2ccccc2)CC1` [Compound 267, N-(1-([1,1′-Biphenyl]-2-yl)cyclopropyl)-5-(2-(dimethylamino)ethoxy)-2-methylbenzamide] has an IC50 of over 5000 nM. Work on `Cc1ccc(OCC2CC(C)(C)N2Cc2ccccc2)cc1C(=O)NC1(c2cccc3ccccc23)CC1` (centres unmarked) [Compound 492, 5-((1-Benzyl-4,4-dimethylazetidin-2-yl)methoxy)-2-methyl-N-(1-(naphthalen-1-yl)cyclopropyl)benzamide] yielded an IC50 of 100 to 1000 nM. With “5-(2-Hydroxyethoxy)-2-methyl-N-(1-(naphthalen-1-yl)cyclopropyl)benzamide [Compound 393]” the IC50 was 100 to 1000 nM. With `Cc1ccc(N2CCN(CCO)CC2)cc1C(=O)NC1(c2cccc3ccccc23)CC1` [Compound 505, 5-(4-(2-Hydroxyethyl)piperazin-1-yl)-2-methyl-N-(1-(naphthalen-1-yl)cyclopropyl)benzamide] the IC50 was under 100 nM. For `Cc1ccc(COC2CNC2)cc1C(=O)NC1(c2cccc3ccccc23)CC1` [Compound 435, 5-((Azetidin-3-yloxy)methyl)-2-methyl-N-(1-(naphthalen-1-yl)cyclopropyl)benzamide], the IC50 was 100 to 1000 nM. For `COCCNCCOc1ccc(C)c(C(=O)NC2(c3cccc4ccccc34)CC2)c1` [Compound 358, 5-(2-((2-Methoxyethyl)amino)ethoxy)-2-methyl-N-(1-(naphthalen-1-yl)cyclopropyl)benzamide], the IC50 was under 100 nM. Work on `Cc1ccc(NCCN(C)C)cc1C(=O)NC1(c2cccc3ccccc23)CC1` [Compound 412] yielded an IC50 of under 100 nM.
